Measurements: patent US10894775B2, “Piperidine derivatives as liver X receptor beta agonists, compositions, and their use” (Merck Sharp & Dohme Corp., priority 2016, dated 2021)
Like-named read-outs stand apart in the source and are kept apart here.

Columns and labels:
[1] = biological target: T1, glutathione-S-transferase (GST) tagged LXRalpha LBD (ligand binding domain) (Homo sapiens, UniProt Q13133); assay: LanthaScreen TR-FRET Liver X Receptor Coactivator Assay, LXR alpha; type: biochemical; conditions: for EC50 / LXR alpha IP (nM): potency (Inflection Point) of compound-induced co-activator recruitment, TR-FRET; for Emax: read-out: LXR alpha actiivty at max dose (%)
T1 construct: purchased Invitrogen pv4655
T1 sequence (Q13133 209-447 limits assumed): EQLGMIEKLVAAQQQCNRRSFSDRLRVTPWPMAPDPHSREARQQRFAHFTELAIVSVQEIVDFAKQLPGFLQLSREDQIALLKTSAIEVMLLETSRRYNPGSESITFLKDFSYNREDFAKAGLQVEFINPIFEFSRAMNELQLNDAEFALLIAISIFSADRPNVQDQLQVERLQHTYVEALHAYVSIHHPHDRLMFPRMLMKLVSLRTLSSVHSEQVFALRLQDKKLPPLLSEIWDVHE
Description: (§1) While running the LanthaScreen™ TR-FRET Liver X Receptor Coactivator Assay, LXR alpha-LBD or LXR beta-LBD was added to ligand test compounds followed by addition of a mixture of a fluorescein-labelled coactivator peptide and terbium-conjugated anti-GST antibody. After an incubation period at room temperature, TR-FRET (time-resolved fluorescence resonance energy transfer) was measured using a filter-based instrument capable of TR-FRET, e.g. PerkinElmer Envision.

[2] = biological target: T2, glutathione-S-transferase (GST) tagged LXRbeta LBD (ligand binding domain) (Homo sapiens, UniProt P55055); assay: LanthaScreen TR-FRET Liver X Receptor Coactivator Assay, LXR beta; type: biochemical; conditions: for Emax: read-out: LXR beta actiivty at max dose (%); for EC50: potency (Inflection Point) of compound-induced co-activator recruitment, TR-FRET
T2 construct: purchased Invitrogen pv4658.pps
T2 sequence (P55055 222-460 limits assumed): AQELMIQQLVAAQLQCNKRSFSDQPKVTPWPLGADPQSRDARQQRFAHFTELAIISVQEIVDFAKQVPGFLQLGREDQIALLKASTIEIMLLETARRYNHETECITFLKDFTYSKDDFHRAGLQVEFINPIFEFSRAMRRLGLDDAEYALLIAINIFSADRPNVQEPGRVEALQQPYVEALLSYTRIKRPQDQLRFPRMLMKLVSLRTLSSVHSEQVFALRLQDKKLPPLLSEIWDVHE
Description: as §1

[3] = efficacy (Emax) in relation to reference dual agonist T0901317

**Q.** `CNC(=O)c1ccc(NCCCCC2CCN(C(=O)C(O)(c3cccc(OC)c3)C(F)(F)F)CC2)cc1Cl` (single isomer, unassigned) [Example 1-1, (R or S)-2-chloro-N-methyl-4-(4-(1-(3,3,3-trifluoro-2-hydroxy-2-(3-methoxyphenyl)propanoyl)piperidin-4-yl)butylamino)benzamide] was tested. Which EC50 ([1]; LXR alpha IP (nM)) did it give?
**A.** 577 nM

**Q.** And the Emax [1]?
**A.** 17%

**Q.** What about the Emax [2, 3] of the same compound?
**A.** 68%

**Q.** And the EC50 ([2]; read-out: LXR beta IP)?
**A.** 8 nM

**Q.** `NC(=O)c1ccc(NCCCCC2CCN(C(=O)C(O)(c3ccccc3)C(F)(F)F)CC2)cc1Cl` (single isomer, unassigned) [Example 1-2, (R or S)-2-chloro-4-(4-(1-(3,3,3-trifluoro-2-hydroxy-2-phenylpropanoyl)piperidin-4-yl)butylamino)benzamide] was tested. Which Emax [1, 3] did it give?
**A.** 43%

**Q.** What about the EC50 ([1]; read-out: LXR alpha IP) of the same compound?
**A.** 266 nM

**Q.** And the Emax [2, 3]?
**A.** 59%

**Q.** And the EC50 ([2]; read-out: LXR beta IP)?
**A.** 15 nM

**Q.** Which Emax [1, 3] does the source give for `CNC(=O)c1ccc(NCCCCC2CCN(C(=O)C(O)(c3ccccc3)C(F)(F)F)CC2)cc1Cl` (single isomer, unassigned) [Example 1-3, (R or S)-2-chloro-N-methyl-4-(4-(1-(3,3,3-trifluoro-2-hydroxy-2-phenylpropanoyl)piperidin-4-yl)butylamino)benzamide] here?
**A.** 38%

**Q.** And the EC50 ([1]; read-out: LXR alpha IP)?
**A.** 481 nM

**Q.** What about the Emax [2, 3] of the same compound?
**A.** 75%

**Q.** And the EC50 ([2]; read-out: LXR beta IP)?
**A.** 9 nM

**Q.** For `CNC(=O)c1ccc(NCCCCC2CCN(C(=O)C(O)(c3cccc(Cl)c3)C(F)(F)F)CC2)cc1Cl` (single isomer, unassigned) [Example 1-5, (R or S)-2-chloro-4-(4-(1-(2-(3-chlorophenyl)-3,3,3-trifluoro-2-hydroxypropanoyl)piperidin-4-yl)butylamino)-N-methylbenzamide], which Emax [1, 3] is on record?
**A.** 32%

**Q.** And the EC50 ([1]; read-out: LXR alpha IP)?
**A.** 239 nM

**Q.** What about the Emax [2, 3] of the same compound?
**A.** 72%

**Q.** And the EC50 ([2]; read-out: LXR beta IP)?
**A.** 8 nM

**Q.** What does the source list for `CNC(=O)c1ccc(NCCCCC2CCN(C(=O)C(O)(c3cccc(OC)c3)C(F)(F)F)CC2)cc1F` (single isomer, unassigned) [Example 1-6, (R or S)-2-fluoro-N-methyl-4-(4-(1-(3,3,3-trifluoro-2-hydroxy-2-(3-methoxyphenyl)propanoyl)piperidin-4-yl)butylamino)benzamide]?
**A.** Emax [1, 3]: 16%; EC50 ([1]; read-out: LXR alpha IP): 3300 nM; Emax [2, 3]: 63%; EC50 ([2]; read-out: LXR beta IP): 102 nM

**Q.** Which results are given for `CNC(=O)c1ccc(NCCCCC2CCN(C(=O)C(O)(c3cccc(OC4CC4)c3)C(F)(F)F)CC2)cc1Cl` (single isomer, unassigned) [Example 1-7, (S or R)-2-chloro-4-(4-(1-(2-(3-cyclopropoxyphenyl)-3,3,3-trifluoro-2-hydroxypropanoyl)piperidin-4-yl)butylamino)-N-methylbenzamide]?
**A.** Emax [1, 3]: 19%; EC50 ([1]; read-out: LXR alpha IP): 3160 nM; Emax [2, 3]: 56%; EC50 ([2]; read-out: LXR beta IP): 14 nM

**Q.** What does the source list for `CCc1cccc(C(O)(C(=O)N2CCC(CCCCNc3ccc(C(=O)NC)c(Cl)c3)CC2)C(F)(F)F)c1` (single isomer, unassigned) [Example 1-8, (S or R)-2-chloro-4-(4-(1-(2-(3-ethylphenyl)-3,3,3-trifluoro-2-hydroxypropanoyl)piperidin-4-yl)butylamino)-N-methylbenzamide]?
**A.** Emax [1, 3]: 12%; LXR alpha IP (nM) [1]: No IP; Emax [2, 3]: 52%; EC50 ([2]; read-out: LXR beta IP): 4 nM

**Q.** For `CNC(=O)c1ccc(NCCCCC2CCN(C(=O)C(O)(c3cccc(OC(F)(F)F)c3)C(F)(F)F)CC2)cc1Cl` (single isomer, unassigned) [Example 1-9, (S or R)-2-chloro-N-methyl-4-(4-(1-(3,3,3-trifluoro-2-hydroxy-2-(3-(trifluoromethoxy)phenyl)propanoyl)piperidin-4-yl)butylamino)benzamide], which Emax [1, 3] is on record?
**A.** 13%

**Q.** And the “LXR alpha IP (nM)” value [1]?
**A.** No IP

**Q.** And the Emax [2, 3]?
**A.** 62%

**Q.** And the EC50 ([2]; read-out: LXR beta IP)?
**A.** 17 nM

**Q.** With `CNC(=O)c1ccc(NCCCCC2CCN(C(=O)C(O)(c3cccc(OC(C)C)c3)C(F)(F)F)CC2)cc1Cl` (single isomer, unassigned) [Example 1-10, (S or R)-2-chloro-N-methyl-4-(4-(1-(3,3,3-trifluoro-2-hydroxy-2-(3-isopropoxyphenyl)propanoyl)piperidin-4-yl)butylamino)benzamide] as the compound, how does the Emax [1, 3] read?
**A.** 19%

**Q.** What about the EC50 ([1]; read-out: LXR alpha IP) of the same compound?
**A.** 2090 nM

**Q.** And the Emax [2, 3]?
**A.** 68%

**Q.** And the EC50 ([2]; read-out: LXR beta IP)?
**A.** 14 nM

**Q.** With `CNC(=O)c1ccc(NCCCCC2CCN(C(=O)C(O)(c3cc(Cl)cc(Cl)c3)C(F)(F)F)CC2)cc1Cl` (single isomer, unassigned) [Example 1-11, (R or S)-2-chloro-4-(4-(1-(2-(3,5-dichlorophenyl)-3,3,3-trifluoro-2-hydroxypropanoyl)piperidin-4-yl)butylamino)-N-methylbenzamide] as the compound, how does the Emax [1, 3] read?
**A.** 0%

**Q.** What about the “LXR alpha IP (nM)” value [1] of the same compound?
**A.** No IP

**Q.** And the Emax [2, 3]?
**A.** 29%

**Q.** What about the EC50 ([2]; read-out: LXR beta IP) of the same compound?
**A.** 3 nM

**Q.** With `CN(C)C(=O)c1ccc(NCCCCC2CCN(C(=O)C(O)(c3ccccc3)C(F)(F)F)CC2)cc1Cl` (single isomer, unassigned) [Example 1-15, (S or R)-2-chloro-N,N-dimethyl-4-(4-(1-(3,3,3-trifluoro-2-hydroxy-2-phenylpropanoyl)piperidin-4-yl)butylamino)benzamide] as the compound, how does the Emax [1, 3] read?
**A.** 43%

**Q.** What about the EC50 ([1]; read-out: LXR alpha IP) of the same compound?
**A.** 147 nM

**Q.** What about the Emax [2, 3] of the same compound?
**A.** 72%

**Q.** What about the EC50 ([2]; read-out: LXR beta IP) of the same compound?
**A.** 3 nM

**Q.** Which results are given for `CN(C)C(=O)c1ccc(N(C)CCCC2CCN(C(=O)C(O)(c3ccccc3)C(F)(F)F)CC2)cc1Cl` (single isomer, unassigned) [Example 3-1, (S or R)-2-chloro-N,N-dimethyl-4-(methyl(3-(1-(3,3,3-trifluoro-2-hydroxy-2-phenylpropanoyl)piperidin-4-yl)propyl)amino)benzamide]?
**A.** Emax [1, 3]: 16%; EC50 ([1]; read-out: LXR alpha IP): 1150 nM; EC50 ([2]; LXR beta IP (nM)): 47 nM; Emax [2]: 109%

**Q.** Which results are given for `COc1cccc([C@@](O)(C(=O)N2CCC(CCC[C@H](C)Nc3ccc(C(=O)N(C)C)c(Cl)c3)CC2)C(F)(F)F)c1` (single isomer, unassigned) [Example 4-1, 2-chloro-N,N-dimethyl-4-((S or R)-5-(1-((R or S)-3,3,3-trifluoro-2-hydroxy-2-(3-methoxyphenyl)propanoyl)piperidin-4-yl)pentan-2-ylamino)benzamide]?
**A.** Emax [1, 3]: 22%; EC50 ([1]; read-out: LXR alpha IP): 734 nM; Emax [2, 3]: 71%; EC50 ([2]; read-out: LXR beta IP): 13 nM

**Q.** Which Emax [1, 3] does the source give for `CC(CCCC1CCN(C(=O)[C@](O)(c2cccc(Cl)c2)C(F)(F)F)CC1)Nc1ccc(C(=O)N(C)C)c(Cl)c1` (single isomer, unassigned) [Example 4-2, 2-chloro-4-((S or R)-5-(1-((R or S)-2-(3-chlorophenyl)-3,3,3-trifluoro-2-hydroxypropanoyl)piperidin-4-yl)pentan-2-ylamino)-N,N-dimethylbenzamide] here?
**A.** 37%

**Q.** And the EC50 ([1]; read-out: LXR alpha IP)?
**A.** 382 nM

**Q.** What about the Emax [2, 3] of the same compound?
**A.** 84%

**Q.** What about the EC50 ([2]; read-out: LXR beta IP) of the same compound?
**A.** 7 nM

**Q.** What does the source list for `CC(CCCC1CCN(C(=O)[C@](O)(c2ccccc2)C(F)(F)F)CC1)Nc1ccc(C(=O)N(C)C)c(Cl)c1` (single isomer, unassigned) [Example 4-3, 2-chloro-N,N-dimethyl-4-((S or R)-5-(1-((R or S)-3,3,3-trifluoro-2-hydroxy-2-phenylpropanoyl)piperidin-4-yl)pentan-2-ylamino)benzamide]?
**A.** LXR alpha actiivty at max dose (%) [1, 3]: 35%; EC50 ([1]; read-out: LXR alpha IP): 653 nM; Emax [2, 3]: 79%; EC50 ([2]; read-out: LXR beta IP): 15 nM

**Q.** With `CC(CCCC1CCN(C(=O)[C@](O)(c2ccccc2)C(F)(F)F)CC1)Nc1ccc(C(=O)N(C)C)c(Cl)c1` (single isomer, unassigned) [Example 4-4, 2-chloro-N,N-dimethyl-4-((R or S)-5-(1-((R or S)-3,3,3-trifluoro-2-hydroxy-2-phenylpropanoyl)piperidin-4-yl)pentan-2-ylamino)benzamide] as the compound, how does the “LXR alpha actiivty at max dose (%)” value [1, 3] read?
**A.** 7%

**Q.** And the “LXR alpha IP (nM)” value [1]?
**A.** No IP

**Q.** What about the “LXR beta actiivty at max dose (%)” value [2, 3] of the same compound?
**A.** 59%

**Q.** And the EC50 ([2]; read-out: LXR beta IP)?
**A.** 325 nM

**Q.** With `COc1cccc([C@@](O)(C(=O)N2CCC(CCCC(C)Nc3ccc(C(=O)N(C)C)c(Cl)c3)CC2)C(F)(F)F)c1` (single isomer, unassigned) [Example 4-5, 2-chloro-N,N-dimethyl-4-((R or S)-5-(1-((R or S)-3,3,3-trifluoro-2-hydroxy-2-(3-methoxyphenyl)propanoyl)piperidin-4-yl)pentan-2-ylamino)benzamide] as the compound, how does the Emax [1, 3] read?
**A.** 0%

**Q.** And the “LXR alpha IP (nM)” value [1]?
**A.** No IP

**Q.** And the Emax [2, 3]?
**A.** 17%

**Q.** What about the EC50 ([2]; read-out: LXR beta IP) of the same compound?
**A.** 3770 nM

**Q.** Which Emax [1, 3] does the source give for `CC(CC1CC12CCN(C(=O)C1(c3ccccc3)CCC1)CC2)Nc1ccc(C(=O)N(C)C)c(Cl)c1` (single isomer, unassigned) [Example 5-1, 2-chloro-N,N-dimethyl-4-(1-((S or R)-6-(1-phenylcyclobutanecarbonyl)-6-azaspiro[2.5]octan-1-yl)propan-2-ylamino)benzamide] here?
**A.** 56%

**Q.** What about the EC50 ([1]; read-out: LXR alpha IP) of the same compound?
**A.** 220 nM

**Q.** And the EC50 ([2]; LXR beta IP (nM))?
**A.** 5 nM

**Q.** What about the Emax [2] of the same compound?
**A.** 41%
